In brackets after ≈: the same amount, converted by molar mass. Several values for one entry are separate records, joined by “and”; a condition that tells them apart may be missing. Equal entries are not always repeated. Where two headings read alike, the source gives them in different places.
Experiments:
[1] = tested on: 5 major human cytochrome P450 isoforms (CYPs); assay: Inhibition of cytochrome P450 isoforms in vitro; assay type: in vitro ADME
A. baumannii (AB) = assay: MIC, broth microdilution, Brooklyn hospital isolates: A. baumannii; assay type: cell-based
Method: In another study, the activity of Compound 1 against a collection of contemporary Gram-negative bacteria was determined. Unique patient isolates of P. aeruginosa (PA), A. baumannii (AB), K. pneumoniae (KP), E. coli (EC), and Enterobacter spp. (EB) from prior surveys at 16 Brooklyn, N.Y. hospitals were selected based on resistance patterns. The majority of isolates were fingerprinted by automated ribotyping. MICs were performed by broth microdilution. PCR was used to identify aminoglycoside-modifying enzymes (AMEs) in AB and KP and the KPC gene in Enterobacteriaceae (EN). The expression of the efflux genes mexA, C, E and X in PA, and adeB in AB was assessed by real-time RT-PCR.

[2] = Pharmacokinetics of Compound 1 after single bolus IV injection in beagle dogs (plasma); assay type: in vivo; conditions: for AUC(0-inf) / C0 / clearance / MRT inf / Vd: iv; for MRT inf: read-out: MRT0-∞
Method: Male CD-1 mice, Sprague Dawley rats, and beagle dogs were administered Compound 1 intravenously. Compound 1 was preformulated as a sterile isotonic solution of 10 mg/mL in PBS. Specifically, male CD-1 mice were administered a single bolus IV injection of the Compound at 10 mg/kg, via a bolus IV injection into the tail vein. Two blood samples per mouse were collected by retro-orbital puncture into tubes containing the anticoagulant K2EDTA prior to dosing and at 0.033, 0.083, 0.25, 0.5, 1 and 24 hours. Rats were administered Compound 1 at 10 mg/kg via a bolus IV injection into the tail vein. Twelve blood samples per rat were collected via a jugular vein cannula into tubes containing the anticoagulant K2EDTA at various timepoints (i.e., 0.033, 0.083, 0.25, 0.5, 1, 2, 4, 6, 8, 10, 12, and 24 hours). Male beagle dogs were administered Compound 1 at 10 mg/kg through a temporary percutaneous catheter placed in a peripheral vein. Whole blood samples (0.5 mL) were collected from each dog prior to dosing and at 0.033, 0.083, 0.25, 0.5, 1, 2, 4, 6, 8, and 24 hours via direct venipuncture of a jugular or cephalic vein into tubes containing the anticoagulant K2EDTA. A sparse sampling method was employed to conserve animals and provide the best data possible from fewer mice. Samples were centrifuged, and plasma was collected and transferred into a new tube and frozen at −80° C. until they were analyzed.
Blood, urine, and kidney samples collected over 24 hours were analyzed for Compound 1 levels using LC-MS/MS. Method performance was acceptable in the concentration ranges necessary to determine plasma levels. Compound 1 plasma concentrations were determined by comparing Compound 1 concentration in the sample to a standard curve derived from LC-MS/MS measurements of the analyte. The standard curve fit was linear with a 1/x^2 weighting.
Bioanalytical data analyses were carried out using Analyst software (version 1.4.1, Applied Biosystems, Toronto, ON, Canada). […] PK parameters were determined by noncompartmental analysis using WinNonLin. Plasma protein binding was determined using equilibrium dialysis. In vitro stability was determined using commercially available plasma, microsomes and hepatocytes.

[3] = Acinetobacter baumannii, AB (n = 38)
[4] = beagle dogs, 10 mg/kg single bolus IV, Mean ± SD, 10 mg/kg
[5] = male, beagle, dog, plasma, 10 mg/kg, beagle dogs, 10 mg/kg single bolus IV, Dog 601
[6] = male, beagle, dog, plasma, 10 mg/kg, beagle dogs, 10 mg/kg single bolus IV, Dog 602
[7] = male, beagle, dog, plasma, 10 mg/kg, beagle dogs, 10 mg/kg single bolus IV, Dog 603
[8] = male, beagle, dog, plasma, 10 mg/kg, beagle dogs, 10 mg/kg single bolus IV, Mean ± SD

Which “inhibition of the 5 major human CYPs” value [1] does the source give for `CN[C@@H]1[C@@H](O)[C@@H](O[C@@H]2[C@@H](O)[C@H](O[C@H]3OC(CNCCO)=CC[C@H]3N)[C@@H](N)C[C@H]2NC(=O)[C@@H](O)CCN)OC[C@]1(C)O` [Compound 1, 6′-(2-Hydroxy-ethyl)-1-(4-amino-2(S)-hydroxy-butyryl)-sisomicin] here?
The value was “did not inhibit”.

And the “isolates with Compound 1 MICs >8” value (A. baumannii (AB); AB isolates with increased expression of adeB)?
The value was 69%.

What about the “isolates with Compound 1 MICs>4” value (A. baumannii (AB); AB isolates with the AME aacA4) of the same compound?
Its value is 93%.

What about the “isolates with Compound 1 MICs >8” value (A. baumannii (AB); AB isolates without increased expression of adeB) of the same compound?
Its value is 13%.

And the “isolates with Compound 1 MICs>4” value (A. baumannii (AB); AB isolates without the AME aacA4)?
Its value is 50%.

And the MIC50 (A. baumannii (AB); [3])?
Its MIC50 is 8 µg/mL (≈ 13.5 µM).

What about the MIC90 (A. baumannii (AB); [3]) of the same compound?
Its MIC90 is greater than 16 µg/mL.

And the MIC (A. baumannii (AB); Acinetobacter baumannii, AB isolates without AMEs, read-out: MICs achieved by some isolates)?
The MIC was greater than 16 µg/mL.

And the “HL Lambda Z” value ([2]; beagle dogs, 10 mg/kg single bolus IV, Dog 601)?
The value was 1.18 h.

What about the “HL Lambda Z” value ([2]; beagle dogs, 10 mg/kg single bolus IV, Dog 602) of the same compound?
The value was 1.24 h.

What about the “HL Lambda Z” value ([2]; beagle dogs, 10 mg/kg single bolus IV, Dog 603) of the same compound?
The value was 1.23 h.

And the “AUC0-∞” value [2, 4]?
The value was 82600 ± 11500 ng·h/mL.

And the “HL Lambda Z” value [2, 4]?
Its value is 1.22 h and 1.22 ± 0.03 h.

And the half-life ([2]; male, beagle, dog, plasma, intravenous, 10 mg/kg, dogs, read-out: t½ (renal clearance) (converted))?
The half-life was roughly 1 h.

What about the AUC(0-inf) [2, 5] of the same compound?
Its AUC(0-inf) is 69400 ng·h/mL.

What about the C0 [2, 5] of the same compound?
The C0 was 134 µg/mL.

What about the clearance [2, 5] of the same compound?
Its clearance is 2.4 mL/min/kg.

What about the MRT inf [2, 5] of the same compound?
The MRT inf was 1.26 h.

What about the Vd ([2]; male, beagle, dog, plasma, 10 mg/kg, beagle dogs, 10 mg/kg single bolus IV, Dog 601, read-out: Vss) of the same compound?
The Vd was 0.181 L.

What about the AUC(0-inf) [2, 6] of the same compound?
Its AUC(0-inf) is 88700 ng·h/mL.

And the C0 [2, 6]?
The C0 was 119 µg/mL.

What about the clearance [2, 6] of the same compound?
The clearance was 1.88 mL/min/kg.

And the MRT inf [2, 6]?
The MRT inf was 1.32 h.

What about the Vd ([2]; male, beagle, dog, plasma, 10 mg/kg, beagle dogs, 10 mg/kg single bolus IV, Dog 602, read-out: Vss) of the same compound?
The Vd was 0.149 L.

And the AUC(0-inf) [2, 7]?
The AUC(0-inf) was 89700 ng·h/mL.

What about the C0 [2, 7] of the same compound?
The C0 was 106 µg/mL.

And the clearance [2, 7]?
Its clearance is 1.85 mL/min/kg.

And the MRT inf [2, 7]?
The MRT inf was 1.45 h.

And the Vd ([2]; male, beagle, dog, plasma, 10 mg/kg, beagle dogs, 10 mg/kg single bolus IV, Dog 603, read-out: Vss)?
The Vd was 0.162 L.

What about the AUC(0-inf) [2, 8] of the same compound?
The AUC(0-inf) was 83000 ng·h/mL.

What about the C0 [2, 8] of the same compound?
Its C0 is 120 µg/mL.

And the clearance [2, 8]?
Its clearance is 2.05 mL/min/kg.

And the MRT inf [2, 8]?
Its MRT inf is 1.34 h.

And the Vd ([2]; male, beagle, dog, plasma, 10 mg/kg, beagle dogs, 10 mg/kg single bolus IV, Mean ± SD, read-out: Vss)?
Its Vd is 0.164 ± 0.016 L.

And the Vd ([2]; male, beagle, dog, plasma, 10 mg/kg, beagle dogs, 10 mg/kg single bolus IV, mean, read-out: volume of distribution at steady state)?
Its Vd is 0.164 L/kg.

From patent US20120208781A1, “AMINOGLYCOSIDE DOSING REGIMENS” (Achaogen, Inc., priority 2009, published 2012)
